Assay results taken from patent US20130261134A1, “MESYLATE SALT FORMS OF A POTENT HCV INHIBITOR” (Boehringer Ingelheim International GmbH, priority 2012, published 2013).

Assay: Solubility in the physiological pH range
Format: physicochemical
Details: aqueous buffer; physiological pH range of 2-6.8

Cn1c(C2(NC(=O)c3ccc4c(C5CCCC5)c(-c5ncc(Br)cn5)n(C)c4c3)CCC2)nc2ccc(/C=C/C(=O)O)cc21 [Compound (1), (E)-3-[2-(1-{[2-(5-Bromo-pyrimidin-2-yl)-3-cyclopentyl-1-methyl-1H-indole-6-carbonyl]-amino}-cyclobutyl)-3-methyl-3H-benzimidazol-5-yl]-acrylic acid]
solubility: < 0.2 µg/mL
